# In patent publication US4276890A, “Tobacco smoking inhibitor” (priority 1979, dated 1981):
# Where “and” joins values, the source holds several entries; their conditions need not be identical. Equal entries are not always repeated.
# Key:
# smoking habit of smokers = experiment: Single dose response in smokers (Example 3); type: in vivo, human (volunteer smokers)
# Description: The effect of a single dose of ethyl maltol in the range from 100 mg to 1,200 mg was tested on thirty volunteer subjects who were smokers. As a control, an additional ten smokers were given an inert placebo, a similar candy or gum laced with ascorbic acid and citric acid to impart a medicinal flavor. […] The threshold of effectiveness varied with the individual's age, sex, weight, smoking history, and habits. […] These studies established the existence of a critical threshold dose level below which the effectiveness of ethyl maltol as a tobacco smoking inhibitor was not observed. In subsequent tests where the gamma pyrone was administered in a dose series extending over several days, daily doses of less than about 300 mg per day were similarly ineffective.
# smoking level of smokers = experiment: Daily rates of smoking reduction (Example 5, Table II; comparison with placebo groups of Example 6); type: in vivo, human (volunteer smokers); details: for reduction in smoking level: 1,000 mg/day, eight slowly dissolving lozenges, individual subjects
# Description: Subjects who participated had prior knowledge of the purported effect of the treatment. They were asked to test a new dosage form and told that a "cure" was not necessarily to be expected in this test. The dosage was 1,000 mg/day of ethyl maltol divided over eight pieces of slowly dissolving lozenges, made essentially as described supra. Subjects administered their own dosage without supervision. The tests were designed and supervised by the inventor but carried out by intermediaries, in order to maximize the opportunity for objective evaluation of symptoms, and to minimize any possibility of investigative bias influencing the results. (True double blind tests are impossible because the gamma pyrone flavor is distinctive and virtually impossible to mask). Subjects were all in generally good health, and were selected to represent a variety of ages, occupational stresses, and personal life styles.
# Levels of tobacco consumption were calculated taking into account the number of cigarettes smoked and the proportions smoked. They are expressed as percent reduction from the pretest smoking level.
# During the same time period that the studies in Example Five were conducted, two groups of smokers were administered a placebo dosage comprising the same basic candy lozenge, but lacking any gamma pyrone and containing ascorbic and citric acids to impart a sharp, medicinal flavor.
# This conclusion is further substantiated by analysis of variance. For such analysis, individual tests that were either incomplete or which presented unusual circumstances were discarded. Results from placebo groups one and two were pooled. The average percent reduction in smoking is plotted in FIG. 1, for the treatment and the placebo groups.
# non-smoker volunteers = experiment: Non-smoker control volunteers on same regimen; type: in vivo, human (non-smokers); details: five non-smokers; in excess of 500 mg per day for several days
# Description: As a control, five non-smoker volunteers were tested according to the same regimen, receiving varying quantities of ethyl maltol in excess of 500 mg. per day for periods of several days.
# Solubility = type: physicochemical
# Description: The troches were made essentially by conventional candy making techniques. The polysaccharide and starch were first dry blended to substantial uniformity. About 3-4% by weight of water was added to the dry powder to form a thick paste. This paste was then heated to produce a uniform viscous melt. Maltol or ethyl maltol were added to this melt as saturated solutions in boiling water. The water solubility of the gamma pyrones is somewhat limited. For example, one gram of ethyl maltol requires 6 ml of water at 100° C. to dissolve completely. Since the water content of the mixture must be kept low, the amount of ethyl maltol which can be incorporated is about 3-4%, and preferably about 1% by weight of the troche. […] Alternatively, the entire process can be carried out in a suitable pressure apparatus.
# [1] = Dissolution in the mouth of gamma pyrone particles dispersed in chewing gum; type: physicochemical; details: particles 300 to 400 mesh
# Description: The formation of a chewing gum for administering a gamma pyrone according to the invention is next described. Crystaline ethyl maltol was ground and sieved to 300 mesh. The ground particles acquired a static charge, tending to float upwards. In practice, it was possible to sieve the particles upwards, collecting only those which passed through the 300 mesh screen.
# The ground particles were mixed at 45° C. with a plastic chewing gum base, until evenly distributed throughout the mass. The chewing gum base was selected to be free of amino acids, tannins and other flavoring elements capable of combining with gamma pyrone to yield bitter off flavors. The rate of release of gamma pyrone into the oral cavity is a function of the rate of solution of the gamma pyrone as the gum is chewed. The rate of solution is controlled by the size of the gamma pyrone particles dispersed in the gum. Optimally, for ethyl maltol, particles in the size range from 300 to 400 mesh when dispersed in such a matrix, are dissolved in the mouth in about 30 minutes. The gamma pyrone must be dispersed throughout the gum in particulate form to provide the desired sustained release effect, particles […] than 300-400 mesh dissolved more slowly, so that the incremental dose was delivered more slowly. […] particles dissolved more rapidly than desired so that the dose was delivered in an undesirably short time. […]
# [2] = test system: spontaneous motor activity; details: mice; relative to maltol; cited from earlier work
# [3] = test system: convulsions produced by pentylenetetrazole or strychnine; details: 300 to 500 mg per kg; cited from earlier work
# [4] = test system: hexobarbital-induced sleeping time; details: 300 to 500 mg per kg; cited from earlier work
# rat brain cortex slices = details: in vitro; cited from earlier work
# [5] = per day; cited from earlier work
# [6] = cited from earlier work
smiles,measurement,setting,value
"CCc1occc(=O)c1O [ethyl maltol, 3-hydroxy-2-ethyl-4-pyrone]","threshold dose, chewing gum versus tablet",smoking habit of smokers; chewing gum over ten to fifteen minutes versus tablet,somewhat lower
same,reaction to cigarettes,smoking habit of smokers; single dose greater than 300 mg,immediate overt negative reaction to cigarettes
same,duration of substantially reduced level of smoking,smoking habit of smokers; single dose greater than 500 mg,a few hours to two days
same,desire to smoke cigarettes,"smoking habit of smokers; single dose greater than 500 mg, substantially all individuals",a definitive result of reduced desire to smoke cigarettes
same,"effect of dose greater than 1,200 mg","smoking habit of smokers; single dose greater than 1,200 mg",no addition advantage
same,effect on smoking,smoking habit of smokers; single dose of less than 300 mg,no definitive effect
same,effect of increasing dose,"smoking habit of smokers; single dose up to about 1,200 mg",Increased effectiveness
same,physiological symptoms of nicotine withdrawal,"smoking habit of smokers; single dose, some subjects","For some subjects, physiological symptoms of nicotine withdrawal were noted"
same,reduction in smoking level,smoking level of smokers; Day 1,10%
same,reduction in smoking level,smoking level of smokers; Day 2,5% and 15% and 10% and 30% and 20%
same,reduction in smoking level,smoking level of smokers; Day 3,10% and 20% and 5% and 40% and 60% and 30% and 15% and 45%
same,reduction in smoking level,smoking level of smokers; Day 4,40% and 50% and 10% and 65% and 5% and 75% and 70% and 30%
same,reduction in smoking level,smoking level of smokers; Day 5,30% and 80% and 10% and 85% and 60% and 90% and 50% and 35% and 95%
same,reduction in smoking level,smoking level of smokers; Day 6,60% and 95% and 20% and 15% and 50% and 70% and 25%
same,reduction in smoking level,smoking level of smokers; Day 7,50% and 40% and 20% and 90% and 65% and 85% and 30% and 45%
same,reduction in smoking level,smoking level of smokers; Day 8,70% and 55% and 40% and 75% and 15% and 90% and 50%
same,reduction in smoking level,smoking level of smokers; Day 9,80% and 70% and 20% and 65% and 95% and 90%
same,reduction in smoking level,smoking level of smokers; Day 10,85% and 90% and 30% and 70% and 80%
same,discontinuation,"smoking level of smokers; subject 10, after day 5, ""beer tasted funny""",Discontinued
same,psychological or physiological effects,non-smoker volunteers,no psychological or physiological effects
same,solubility in alcoholic solution,Solubility; compared with water,somewhat more soluble
same,solubility,"Solubility; one gram, water at 100° C., read-out: water to dissolve one gram completely (converted)",167 mg/mL
same,dissolution time in the mouth from gum,[1],about 30 minutes
same,spontaneous motor activity (in words),[2],"also inhibitory, but somewhat less potent"
same,convulsions produced by pentylenetetrazole or strychnine,[3],inhibited convulsions
same,hexobarbital-induced sleeping time,[4],potentiating hexobarbital-induced sleeping time
same,oxygen intake by rat brain cortex slices,rat brain cortex slices,not affected
same,safe average daily intake,[5],2 mg per kg
same,absorption,[6]; after oral administration,rapidly absorbed
same,excretion,[6]; after oral administration,rapidly excreted
same,form of excretion,[6]; after oral administration,primarily as glucuronide and ethereal sulfate conjugates
same,metabolism and excretion,[6]; in vivo,rapidly metabolized and excreted
